According to ChEMBL document CHEMBL1127534, “2-Alkynyl derivatives of adenosine-5'-N-ethyluronamide: selective A2 adenosine receptor agonists with potent inhibitory activity on platelet aggregation” (J Med Chem, 1994):

Columns and labels:
Adenosine receptor A1 [1] = target: T1, Adenosine receptor A1 (Rattus norvegicus, UniProt P25099); experiment: Negative chronotropic activity via A1 Adenosine receptor was tested in spontaneously beating rat atria; type: functional
T1 sequence (P25099 whole entry): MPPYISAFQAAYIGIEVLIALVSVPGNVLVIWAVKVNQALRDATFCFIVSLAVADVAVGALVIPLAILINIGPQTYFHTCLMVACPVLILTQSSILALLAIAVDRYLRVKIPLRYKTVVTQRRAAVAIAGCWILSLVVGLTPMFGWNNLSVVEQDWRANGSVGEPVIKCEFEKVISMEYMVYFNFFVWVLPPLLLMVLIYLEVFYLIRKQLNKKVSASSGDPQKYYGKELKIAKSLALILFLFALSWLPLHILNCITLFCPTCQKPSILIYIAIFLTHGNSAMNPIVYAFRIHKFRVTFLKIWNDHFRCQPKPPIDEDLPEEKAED

Adenosine receptor A1 [2] = target: T1, Adenosine receptor A1; experiment: biochemical
Description: Affinity for adenosine A1 receptor assayed in a competition assay in rat brain using [3H]-CHA as radioligand

Adenosine A2 receptor [3] = target: T2, Adenosine A2 receptor (Rattus norvegicus, UniProt P29276+P30543)
Description: Negative chronotropic activity via A2 Adenosine receptor was tested monitoring vasodilation in rat aorta

[4] = Hydrophobicity index (k') (RP-HPLC); type: ADME
Adenosine A2 receptor [5] = target: T2, Adenosine A2 receptor; remark: listed apart in the source
Description: Affinity for the adenosine A2 receptor was evaluated in a competition assay in rat striatum using [3H]-CGS- 21680 as radioligand

Adenosine receptor A1 [6] = target: T1, Adenosine receptor A1; experiment: Negative chronotropic activity for A1 Adenosine receptor in spontaneously beating rat atria; type: functional
Oryctolagus cuniculus = species: Oryctolagus cuniculus; experiment: Antiaggregatory effect was evaluated on rabbit platelet aggregation induced by ADP.; type: functional
Adenosine A2 receptor [7] = target: T2, Adenosine A2 receptor; experiment: Vasorelaxant activity for A2 Adenosine receptor as vasodilation in rat aorta
Adenosine A2 receptor [8] = target: T2, Adenosine A2 receptor; experiment: Affinity for A2 Adenosine receptor in rat striatum using [3H]-CGS- 21680; type: tissue-based
Adenosine receptor A1 [9] = target: T1, Adenosine receptor A1; experiment: Affinity for A1 Adenosine receptor in rat brain using [3H]CHA; type: tissue-based

Compound	EC50 (Adenosine receptor A1 [1]) [nM]	Ki (Adenosine receptor A1 [2]) [nM]	EC50 (Adenosine A2 receptor [3]) [nM]	k' [4]	Ki (Adenosine A2 receptor [5]) [nM]	EC50 (Adenosine receptor A1 [6]) [µM]	Ratio (Oryctolagus cuniculus)	EC50 (Adenosine A2 receptor [7]) [nM]	Ki (Adenosine A2 receptor [8]) [nM]	Ki (Adenosine receptor A1 [9]) [nM]
CCNC(=O)[C@H]1O[C@@H](n2cnc3c(N)nc(C#CC(O)c4ccccc4)nc32)[C@H](O)[C@@H]1O (stereo partly specified)	110	2.5	123	0.82	0.9	–	–	–	–	–
CCNC(=O)[C@H]1O[C@@H](n2cnc3c(N)nc(C#CC(C)(O)c4ccccc4)nc32)[C@H](O)[C@@H]1O (stereo partly specified)	2430	32.7	456	1.32	1.7	–	–	–	–	–
CCNC(=O)[C@H]1O[C@@H](n2cnc3c(N)nc(C#CCCCC#N)nc32)[C@H](O)[C@@H]1O	2370	184	111	0.32	4.7	–	–	–	–	–
CCNC(=O)[C@H]1O[C@@H](n2cnc3c(N)nc(C#CCN)nc32)[C@H](O)[C@@H]1O	730	48.6	564	0.15	38.3	–	–	–	–	–
CCNC(=O)[C@H]1O[C@@H](n2cnc3c(N)nc(C#CC4(O)CCCC4)nc32)[C@H](O)[C@@H]1O	–	4	–	0.77	0.6	0.475	5.3	159	–	–
CCNC(=O)[C@H]1O[C@@H](n2cnc3c(N)nc(C#CC(C)(O)CC(C)C)nc32)[C@H](O)[C@@H]1O (stereo partly specified)	> 10000	3	338	1.84	0.5	–	–	–	–	–
CCNC(=O)[C@H]1O[C@@H](n2cnc3c(N)nc(C#CCCCCO)nc32)[C@H](O)[C@@H]1O	> 10000	42.1	391	0.35	6.8	–	–	–	–	–
CCNC(=O)[C@H]1O[C@@H](n2cnc3c(N)nc(C#CCC(C)O)nc32)[C@H](O)[C@@H]1O (stereo partly specified)	6050	69.6	1650	0.29	56.4	–	–	–	–	–
CCNC(=O)[C@H]1O[C@@H](n2cnc3c(N)nc(C#CC(O)CC)nc32)[C@H](O)[C@@H]1O (stereo partly specified)	153	–	69.3	0.42	–	–	–	–	12.4	20.4
CCNC(=O)[C@H]1O[C@@H](n2cnc3c(N)nc(C#CC(C)O)nc32)[C@H](O)[C@@H]1O (stereo partly specified)	657	11.1	828	0.23	7.6	–	–	–	–	–
CCNC(=O)[C@H]1O[C@@H](n2cnc3c(N)nc(C#CC4CCCCC4)nc32)[C@H](O)[C@@H]1O	> 10000	236	329	4.54	9.2	–	–	–	–	–
CCNC(=O)[C@H]1O[C@@H](n2cnc3c(N)nc(C#CCCCCl)nc32)[C@H](O)[C@@H]1O	2520	37.9	715	1.35	1	–	–	–	–	–
CCNC(=O)[C@H]1O[C@@H](n2cnc3c(N)nc(C#CCCCO)nc32)[C@H](O)[C@@H]1O	> 10000	99.9	300	0.22	11.3	–	–	–	–	–
CCNC(=O)[C@H]1O[C@@H](n2cnc3c(N)nc(C#CCCO)nc32)[C@H](O)[C@@H]1O	> 10000	47.3	59.4	0.2	10.8	–	–	–	–	–
CCNC(=O)[C@H]1O[C@@H](n2cnc3c(N)nc(C#CC4=CCCCC4)nc32)[C@H](O)[C@@H]1O	–	3300	–	3.9	61.3	> 10	0.03	3030	–	–
C=C(C)C#Cc1nc(N)c2ncn([C@@H]3O[C@H](C(=O)NCC)[C@@H](O)[C@H]3O)c2n1	> 10000	167	1200	1.27	27.3	–	–	–	–	–
CCNC(=O)[C@H]1O[C@@H](n2cnc3c(N)nc(C#CCCOC4CCCCO4)nc32)[C@H](O)[C@@H]1O (stereo partly specified)	–	267	–	1.32	5	> 10	0.3	115	–	–
C#Cc1nc(N)c2ncn([C@@H]3O[C@H](C(=O)NCC)[C@@H](O)[C@H]3O)c2n1	167	35.4	440	0.25	57.8	–	–	–	–	–
CCNC(=O)[C@H]1O[C@@H](n2cnc3c(N)nc(C#CCN(C)C)nc32)[C@H](O)[C@@H]1O	332	27.9	140	0.37	2.3	–	–	–	–	–
CCNC(=O)[C@H]1O[C@@H](n2cnc3c(N)nc(C#CCO)nc32)[C@H](O)[C@@H]1O	84.2	14.1	367	0.17	9.1	–	–	–	–	–
CCNC(=O)[C@H]1O[C@@H](n2cnc3c(N)nc(C#CC(OCC)OCC)nc32)[C@H](O)[C@@H]1O	> 10000	656	382	1.63	441	–	–	–	–	–
CCNC(=O)[C@H]1O[C@@H](n2cnc3c(N)nc(C#CC4(N)CCCCC4)nc32)[C@H](O)[C@@H]1O	–	398	–	0.6	39.4	> 10	0.6	779	–	–
OC[C@H]1O[C@@H](n2cnc3c(NC4CCCC4)nc(Cl)nc32)[C@H](O)[C@@H]1O	–	–	–	2.76	–	–	–	–	–	–
CCCCC#Cc1nc(N)c2ncn([C@@H]3O[C@H](C(=O)NCC)[C@@H](O)[C@H]3O)c2n1	> 10000	130	596	2.57	2.2	–	–	–	–	–
CCNC(=O)[C@H]1O[C@@H](n2cnc3c(N)ncnc32)[C@H](O)[C@@H]1O [NECA]	–	–	–	0.19	–	–	–	–	–	–
